Measurements as given in PubChem BioAssay (NCI).
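Where inhibition never reached the appropriate level, the endpoint shown equals the highest concentration tested. Otherwise, values were interpolated linearly from a five-concentration, 48-hour dose response in 96-well plates. Abbreviation: GI50, concentration required for 50% inhibition of growth. Definition used: TGI = concentration required for complete inhibition of growth.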

Key:
Test in all cases: DTP human tumour cell line panel, 48 h
K-562 leukemia = test system: K-562 leukemia
NCI-H226 lung = test system: NCI-H226 lung
OVCAR-5 ovarian = test system: OVCAR-5 ovarian
HL-60(TB) leukemia = test system: HL-60(TB) leukemia
NCI/ADR-RES ovarian = test system: NCI/ADR-RES ovarian
SK-MEL-5 melanoma = test system: SK-MEL-5 melanoma
MCF7 breast = test system: MCF7 breast
SK-OV-3 ovarian = test system: SK-OV-3 ovarian
HOP-92 NSCLC = test system: HOP-92 NSCLC
RPMI-8226 leukemia = test system: RPMI-8226 leukemia

CC(C)[C@@H]1CC[C@@H]2[C@@H]1[C@H](OC(=O)/C=C/c1ccccc1)[C@]1(C(C)C)C[C@@H](OC(=O)CO)[C@@]2(C)O1
GI50 (K-562 leukemia): 10.4 µM | TGI (K-562 leukemia): 24.1 µM | GI50 (NCI-H226 lung): 5.27 µM | TGI (NCI-H226 lung): 10.9 µM | GI50 (OVCAR-5 ovarian): 5.15 µM | TGI (OVCAR-5 ovarian): 10.2 µM | GI50 (HL-60(TB) leukemia): 8.07 µM | TGI (HL-60(TB) leukemia): 18.4 µM | GI50 (NCI/ADR-RES ovarian): 0.0795 µM | TGI (NCI/ADR-RES ovarian): 5 µM | GI50 (SK-MEL-5 melanoma): 5.96 µM | TGI (SK-MEL-5 melanoma): 10.8 µM | GI50 (MCF7 breast): 4.88 µM | TGI (MCF7 breast): 10.5 µM | GI50 (SK-OV-3 ovarian): 10.3 µM | TGI (SK-OV-3 ovarian): 32.5 µM | GI50 (HOP-92 NSCLC): 4.34 µM | TGI (HOP-92 NSCLC): 8.88 µM | GI50 (RPMI-8226 leukemia): 7.44 µM | TGI (RPMI-8226 leukemia): 16.5 µM

C=C(CN1CCN(c2cccc(F)c2)CC1)c1ccc(C(=O)Nc2ccccc2N)cc1
GI50 (K-562 leukemia): 0.706 µM | TGI (K-562 leukemia): 13.4 µM | GI50 (NCI-H226 lung): 4.17 µM | TGI (NCI-H226 lung): 35.2 µM | GI50 (OVCAR-5 ovarian): 2.61 µM | TGI (OVCAR-5 ovarian): > 100 µM | GI50 (HL-60(TB) leukemia): 0.357 µM | TGI (HL-60(TB) leukemia): 2.26 µM | GI50 (NCI/ADR-RES ovarian): 0.307 µM | TGI (NCI/ADR-RES ovarian): 1.92 µM | GI50 (SK-MEL-5 melanoma): 1.91 µM | TGI (SK-MEL-5 melanoma): 17.2 µM | GI50 (MCF7 breast): 0.691 µM | TGI (MCF7 breast): > 100 µM | GI50 (SK-OV-3 ovarian): 5.31 µM | TGI (SK-OV-3 ovarian): > 100 µM | GI50 (HOP-92 NSCLC): 0.6 µM | TGI (HOP-92 NSCLC): 6.97 µM | GI50 (RPMI-8226 leukemia): 0.429 µM | TGI (RPMI-8226 leukemia): 2.89 µM

O=C(CN1CCN(c2ccc(Cl)cc2)CC1)N1CCN(c2nnc(-c3ccccc3)c(-c3ccccc3)n2)CC1
GI50 (K-562 leukemia): 5.91 µM | TGI (K-562 leukemia): > 100 µM | GI50 (NCI-H226 lung): > 100 µM | TGI (NCI-H226 lung): > 100 µM | GI50 (OVCAR-5 ovarian): > 100 µM | TGI (OVCAR-5 ovarian): > 100 µM | GI50 (HL-60(TB) leukemia): 2.33 µM | TGI (HL-60(TB) leukemia): > 100 µM | GI50 (NCI/ADR-RES ovarian): 5.4 µM | TGI (NCI/ADR-RES ovarian): > 100 µM | GI50 (SK-MEL-5 melanoma): 2.11 µM | TGI (SK-MEL-5 melanoma): 8.31 µM | GI50 (MCF7 breast): 3.38 µM | TGI (MCF7 breast): > 100 µM | GI50 (SK-OV-3 ovarian): 75.7 µM | TGI (SK-OV-3 ovarian): > 100 µM | GI50 (HOP-92 NSCLC): 6.68 µM | TGI (HOP-92 NSCLC): > 100 µM | GI50 (RPMI-8226 leukemia): 2.77 µM | TGI (RPMI-8226 leukemia): > 100 µM
